Data on 1 molecule can be found in patent US20100239655A1, “TAURINE-BASED COMPOSITIONS AND THERAPEUTIC METHODS” (priority 2004, published 2010).

In this test the test system is normal human epidermal keratinocytes. Kind of test: Protection of keratinocytes from ultraviolet induced cell death (apoptosis). It is filed as cell-based. As to conditions: even at micromolar concentrations. The source says:
This effect is independent from and in addition to, the skin barrier repair and hydrating effects taurine exerts on dermal cells.

As for `NCCS(=O)(=O)O` [taurine, Taurine], the “protection from ultraviolet induced cell death (apoptosis)” value is given as “can protect”.
